Patent US10815226B2, “Heteroaryl compounds as inhibitors of necrosis, composition and application thereof” (ACCRO BIOSCIENCE INC., priority 2016, dated 2020)

Key:
[1] = test system: L929 cells; test: L929 cell necroptosis assay (same protocol as the HT29 cell assay); format: cell-based, mouse; conditions: for L929 Inhibition (10 μM): 10 μM test compound, protocol as HT29 assay; for IC50: Mus musculus
Description: The efficacies of RIP1 inhibitors were tested in vitro using human colon cancer TH29 cells in a necroptosis assay. […] Then the cells were treated with TNF-α (40 ng/mL), Smacmimetic (100 nM) and z-VAD (20 μM) for 48 hours, and the viability was quantified. DMSO pretreatment group was negative control, Nec-1 pretreatment group was positive control.
Biological In Vitro L929 Cell Assay.
Mouse L-cells NCTC 929 (L929) were acquired from ATCC (cat. no. ATCC CCL-1) and banked in liquid nitrogen. The assay protocol was the same as described for the HT29 cell assay.

[2] = test system: HT29 cells; test: HT29 cell necroptosis assay (TNF-α/Smac mimetic/z-VAD induced necrosis, viability); format: cell-based, human; conditions: 10 μM test compound pretreated one hour, TNF-α (40 ng/mL), Smacmimetic (100 nM), z-VAD (20 μM) for 48 hours
Description: Biological in Vitro HT29 Cell Assay.
The efficacies of RIP1 inhibitors were tested in vitro using human colon cancer TH29 cells in a necroptosis assay. For the assay, Cells were added to 96-well plates and then 10 μM of the test compound was pretreated for one hour. Then the cells were treated with TNF-α (40 ng/mL), Smacmimetic (100 nM) and z-VAD (20 μM) for 48 hours, and the viability was quantified. DMSO pretreatment group was negative control, Nec-1 pretreatment group was positive control.

[3] = test system: HT29 cells; test: as above; format: cell-based, human; conditions: TNF-α/Smacmimetic/z-VAD induced necrosis
[4] = Homo sapiens, HT-29, HT29 cells, values given in μM
[5] = Homo sapiens, HT-29, HT29 cells, values in nM

SMILES | L929 Inhibition (10 μM) [1] | HT29 Inhibition (10 μM) [2] | IC50 [3, 5] | other results
Nc1nc2ccc(-c3cnc(Cl)c(NC(=O)c4cccc(F)c4)c3)cc2s1 [Compound A1] | 48% | 112% |  | 
CC(=O)Nc1nc2ccc(-c3cnc(Cl)c(NC(=O)c4cccnc4)c3)cc2s1 [Compound A3] | 1% | 7% |  | 
CC(=O)Nc1nc2ccc(-c3cnc(Cl)c(NC(=O)c4ccncc4)c3)cc2s1 [Compound A4] | 1% | 25% |  | 
CC(=O)Nc1nc2ccc(-c3cncc(NC(=O)c4cccc(F)c4)c3)cc2s1 [Compound A5] | 90% | 50% |  | 
CC(=O)Nc1nc2ccc(-c3cncc(NC(=O)Cc4ccccc4)c3)cc2s1 [Compound A12] | 80% | 11% |  | IC50 [3, 4]: 2.56 µM
CC(=O)Nc1nc2ccc(-c3cncc(NC(=O)Cc4cccc(Cl)c4)c3)cc2s1 [Compound A14] | 95% | 71% |  | 
CC(=O)Nc1nc2ccc(-c3cncc(NC(=O)Cc4ccc(Cl)cc4)c3)cc2s1 [Compound A15] | 87% | 95% |  | 
CC(=O)Nc1nc2ccc(-c3cncc(NC(=O)Cc4ccccc4F)c3)cc2s1 [Compound A16] | 86% | 36% |  | 
CC(=O)Nc1nc2ccc(-c3cncc(NC(=O)Cc4ccc(F)cc4)c3)cc2s1 [Compound A18] | 51% | 24% |  | 
CC(=O)Nc1nc2ccc(-c3cc(NC(=O)Cc4ccccc4)ccn3)cc2s1 [Compound A19] | 22% | 1% |  | 
CC(=O)Nc1nc2ccc(-c3cccc(NC(=O)Cc4ccccc4)c3)cc2s1 [Compound A20] | 69% | 11% |  | 
COc1ncc(-c2ccc3nc(NC(C)=O)sc3c2)cc1NC(=O)Cc1ccccc1 [Compound A22] | 42% | 66% |  | 
CC(=O)Nc1nc2ccc(-c3cnc(C)c(NC(=O)CC4CCCCC4)c3)cc2s1 [Compound A25] |  | 68% | 0.255 µM | 
CC(=O)Nc1nc2ccc(-c3cnc(Cl)c(NC(=O)Cc4ccc(OCCOCCNC(=O)OC(C)(C)C)cc4)c3)cc2s1 [Compound A26] | 42% | 30% |  | 
CC(=O)Nc1nc2ccc(-c3cnc(Cl)c(NC(=O)Cc4ccc(OCCOCCNC(=O)CCCCCNC(=O)CCCC[C@@H]5SC[C@@H]6NC(=O)N[C@@H]65)cc4)c3)cc2s1 [Compound A27] | 42% | 48% |  | 
CC(=O)Nc1nc2ccc(-c3cccc(NC(=O)Cc4ccccc4Cl)c3)cc2s1 [Compound A28] | 45% | 34% |  | 
CC(=O)Nc1nc2ccc(-c3cc(NC(=O)Cc4ccccc4Cl)ccn3)cc2s1 [Compound A29] | 45% | 81% |  | 
CC(=O)Nc1nc2ccc(-c3ccnc(NC(=O)Cc4ccccc4Cl)c3)cc2s1 [Compound A30] | 45% | 38% |  | 
Cc1ncc(-c2ccc3nc(NC(=O)CCCCCNC(=O)OC(C)(C)C)sc3c2)cc1NC(=O)Cc1ccccc1 [Compound A31] |  | 87% |  | IC50 [3, 4]: 3.4 µM
CC(=O)Nc1nc2ccc(-c3cnc(C)c(NC(=O)OC4CCCCC4)c3)cc2s1 [Compound A36, Cyclohexyl (5-(2-acetamidobenzo[d]thiazol-6-yl)-2-methylpyridin-3-yl)carbamate] |  |  | 0.03 µM | IC50 ([1]; values in nM): 5 nM

SMILES | L929 Inhibition (10 μM) [1] | HT29 Inhibition (10 μM) [2] | IC50 [3, 5] | other results
CC(=O)Nc1nc2ccc(-c3cnc(C)c(NC(=O)CN4CCCCC4)c3)cc2s1 [Compound A40] |  | 79% |  | IC50 [3, 4]: 1.1 µM
CC(=O)Nc1nc2ccc(-c3cnc(C)c(NC(=O)CC4CCCC4)c3)cc2s1 [Compound A43] |  | 78% | 0.431 µM | 
CC(=O)Nc1nc2ccc(-c3cnc(C)c(NC(=O)CC(C)C)c3)cc2s1 [Compound A44] |  | 47% |  | IC50 [3, 4]: 2.69 µM
CC(=O)Nc1nc2ccc(-c3cnc(C)c(NC(=O)CC(C)(C)C)c3)cc2s1 [Compound A45] |  |  | 0.43 µM | IC50 ([1]; values given in μM): 1010 nM
CC(=O)Nc1cn2cc(-c3cnc(C)c(NC(=O)CC4CCCCC4)c3)ccc2n1 [Compound A46] |  |  | 0.9 µM | IC50 ([1]; values given in μM): 2480 nM
CCc1ncc(-c2ccc3nc(NC(C)=O)sc3c2)cc1NC(=O)OC1CCCCC1 [Compound A54] |  |  | 0.075 µM | IC50 ([1]; values in nM): 200 nM
CC(=O)Nc1nc2ccc(-c3ccc(C)c(NC(=O)OC4CCCCC4)n3)cc2s1 [Compound A56, Cyclohexyl (6-(2-acetamidobenzo[d]thiazol-6-yl)-3-methylpyridin-2-yl) Carbamate] |  |  | 0.7 µM | IC50 ([1]; values in nM): 500 nM
CC(=O)Nc1nc2ccc(-c3cnc(C)c(NC(=O)OC4CCCCC4)c3)nc2s1 [Compound A57] |  |  | 0.092 µM | IC50 ([1]; values in nM): 30 nM
CC(=O)Nc1nc2cc(-c3cnc(C)c(NC(=O)OC4CCCCC4)c3)ccn2n1 [Compound A58] |  |  |  | IC50 [3, 4]: 1 µM; IC50 ([1]; values given in μM): 1000 nM
Cc1ncc(-c2ccc3nc(NC(=O)C4CC4)sc3c2)cc1NC(=O)OC1CCCCC1 [Compound A61] |  |  | 0.0012 µM | IC50 ([1]; values in nM): 3 nM
CC(=O)Nc1nc2ccc(-c3cnc(C)c(NC(=O)OC4CCCCCC4)c3)cc2s1 [Compound A87] |  |  | 0.009 µM | 
CC(=O)Nc1nc2ccc(-c3cnc(C)c(NC(=O)OC(C)C4CC4)c3)cc2s1 (stereo not shown) [Compound A88] |  |  | 0.04 µM | 
CCC(CC)OC(=O)Nc1cc(-c2ccc3nc(NC(C)=O)sc3c2)cnc1C [Compound A89] |  |  | 0.051 µM | 
CC(=O)Nc1nc2ccc(-c3cnc(F)c(NC(=O)OC4CCCCC4)c3)cc2s1 [Compound A90] |  |  |  | IC50 ([3]; HT29 cells, values in nM): 0.3 µM
CC(=O)Nc1nc2ccc(-c3cnc(C)c(NC(=O)OC4CCC4)c3)cc2s1 [Compound A92] |  |  | 0.121 µM | 
CNC(=O)Nc1nc2ccc(-c3cnc(C)c(NC(=O)OC4CCCCC4)c3)cc2s1 [Compound A94] |  |  | 0.01 µM | 
CC(=O)Nc1nc2ccc(-c3cnc(C)c(NC(=O)OC4CCC5(CC4)CC5)c3)cc2s1 [Compound A95] |  |  | 0.053 µM | 
CC(=O)Nc1ccc2cc(-c3cnc(C)c(NC(=O)OC4CCCCC4)c3)ccc2n1 [Compound A99] |  |  | 0.441 µM | 
Cc1ncc(-c2ccc3nc(NC(=O)c4ccccc4)sc3c2)cc1NC(=O)OC1CCCCC1 [Compound A104] |  |  | 0.06 µM | 
